Assay results from patent US10189836B2, “Therapeutic compounds, compositions and methods of use thereof” (Genentech, Inc., priority 2015, dated 2019).
Values belong to the compound of their own block, whether it stands above or below them.

Legend:
[1] = biological target: isolated recombinant JAK2 kinase domain (Homo sapiens (Human), UniProt O60674); assay: JAK2 enzyme assay (Caliper LabChip, Ki); format: biochemical; conditions: isolated recombinant JAK2 kinase domain, 0.2 nM enzyme, ATP 25 μM
[2] = biological target: isolated recombinant JAK1 kinase domain (Homo sapiens (Human), UniProt P23458); assay: JAK1 enzyme assay (Caliper LabChip, Ki); format: biochemical; conditions: isolated recombinant JAK1 kinase domain, 1.5 nM enzyme, ATP 25 μM
isolated recombinant JAK1 kinase domain, sequence (P23458 875-1153): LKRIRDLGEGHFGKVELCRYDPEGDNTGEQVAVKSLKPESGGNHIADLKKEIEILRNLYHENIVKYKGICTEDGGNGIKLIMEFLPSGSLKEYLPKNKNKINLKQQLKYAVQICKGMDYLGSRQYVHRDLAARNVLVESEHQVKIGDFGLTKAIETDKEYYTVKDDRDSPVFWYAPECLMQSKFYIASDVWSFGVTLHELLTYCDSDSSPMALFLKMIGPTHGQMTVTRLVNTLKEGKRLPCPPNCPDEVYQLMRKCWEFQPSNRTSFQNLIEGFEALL

isolated recombinant JAK2 kinase domain, sequence (O60674 849-1124): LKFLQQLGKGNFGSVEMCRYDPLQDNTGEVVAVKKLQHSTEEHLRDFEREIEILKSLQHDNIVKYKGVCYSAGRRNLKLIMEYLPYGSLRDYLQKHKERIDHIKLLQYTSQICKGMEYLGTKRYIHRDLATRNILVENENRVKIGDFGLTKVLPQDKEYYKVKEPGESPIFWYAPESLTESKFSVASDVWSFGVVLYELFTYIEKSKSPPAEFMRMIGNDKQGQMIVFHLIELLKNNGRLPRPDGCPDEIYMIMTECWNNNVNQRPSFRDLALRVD

Compound: CN1CCN(C(=O)Cn2cc(Nc3nc4c(N5CC6CCC(C5)N6S(=O)(=O)C5CCCCC5)cccn4n3)cn2)CC1 [Example 178, 2-[4-[[8-(8-cyclohexylsulfonyl-3,8-diazabicyclo[3.2.1]octan-3-yl)-[1,2,4]triazolo[1,5-a]pyridin-2-yl]amino]pyrazol-1-yl]-1-(4-methylpiperazin-1-yl)ethanone; formic acid]
- Ki [1]: 1.5 nM
- Ki [2]: 1.8 nM

Compound: O=C(Cn1cc(Nc2nc3c(N4CC5CCC(C4)N5C(=O)CCC(F)(F)F)cccn3n2)cn1)N1CCC(N2CCn3nccc3C2)CC1 [Example 179, 1-[3-[2-[[1-[2-[4-(6,7-dihydro-4H-pyrazolo[1,5-a]pyrazin-5-yl)-1-piperidyl]-2-oxo-ethyl]pyrazol-4-yl]amino]-[1,2,4]triazolo[1,5-a]pyridin-8-yl]-3,8-diazabicyclo[3.2.1]octan-8-yl]-4,4,4-trifluoro-butan-1-one; formic acid]
- Ki [1]: 1.3 nM
- Ki [2]: 1.6 nM

Compound: CSC1CCN(C(=O)N2C3CCC2CN(c2cccn4nc(Nc5cnn(CC(=O)N6CCN(C)CC6)c5)nc24)C3)CC1 [Example 180, 1-(4-methylpiperazin-1-yl)-2-[4-[[8-[8-(4-methylsulfanylpiperidine-1-carbonyl)-3,8-diazabicyclo[3.2.1]octan-3-yl]-[1,2,4]triazolo[1,5-a]pyridin-2-yl]amino]pyrazol-1-yl]ethanone]
- Ki [1]: 2.6 nM
- Ki [2]: 1.3 nM

Compound: CN1CCN(C(=O)Cn2cc(Nc3nc4c(N5CC6CCC(C5)N6C(=O)N5CCC(C(F)(F)F)C5)cccn4n3)cn2)CC1 (stereo not drawn) [Example 181, 1-(4-methylpiperazin-1-yl)-2-[4-[[8-[8-(3-(trifluoromethyl)pyrrolidine-1-carbonyl]-3,8-diazabicyclo[3.2.1]octan-3-yl]-[1,2,4]triazolo[1,5-a]pyridin-2-yl]amino]pyrazol-1-yl]ethanone]
- Ki [1]: 1.3 nM
- Ki [2]: 0.8 nM

Compound: CN1CCN(C(=O)Cn2cc(Nc3nc4c(N5CC6CCC(C5)N6C(=O)N5CCC(C#N)CC5)cccn4n3)cn2)CC1 [Example 182, 1-[3-[2-[[1-[2-(4-methylpiperazin-1-yl)-2-oxo-ethyl]pyrazol-4-yl]amino]-[1,2,4]triazolo[1,5-a]pyridin-8-yl]-3,8-diazabicyclo[3.2.1]octane-8-carbonyl]piperidine-4-carbonitrile]
- Ki [1]: 0.9 nM
- Ki [2]: 0.6 nM

Compound: CN1CCN(C(=O)Cn2cc(Nc3nc4c(N5CC6CCC(C5)N6S(=O)(=O)Cc5ccc(C(F)(F)F)cc5)cccn4n3)cn2)CC1 [Example 184, 1-(4-methylpiperazin-1-yl)-2-[4-[[8-[8-([4-(trifluoromethyl)phenyl]methylsulfonyl]-3,8-diazabicyclo[3.2.1]octan-3-yl]-[1,2,4]triazolo[1,5-a]pyridin-2-yl]amino]pyrazol-1-yl]ethanone]
- Ki [1]: 2.3 nM
- Ki [2]: 1 nM

Compound: CSCCN1CCN(C(=O)Cn2cc(Nc3nc4c(N5CC6CCC(C5)N6C(=O)N5CC(C(F)(F)F)C5)cccn4n3)cn2)CC1 [Example 186, 1-[4-(2-methylsulfanylethyl)piperazin-1-yl]-2-[4-[[8-[8-(3-(trifluoromethyl)azetidine-1-carbonyl]-3,8-diazabicyclo[3.2.1]octan-3-yl]-[1,2,4]triazolo[1,5-a]pyridin-2-yl]amino]pyrazol-1-yl]ethanone; formic acid]
- Ki [1]: 0.2 nM
- Ki [2]: 0.2 nM

Compound: CN1CCN(C(=O)Cn2cc(Nc3nc4c(N5CC6CCC(C5)N6C(=O)N5CCC(F)(F)CC5)cccn4n3)cn2)CC1 [Example 188, 2-[4-[[8-[8-(4,4-difluoropiperidine-1-carbonyl)-3,8-diazabicyclo[3.2.1]octan-3-yl]-[1,2,4]triazolo[1,5-a]pyridin-2-yl]amino]pyrazol-1-yl]-1-(4-methylpiperazin-1-yl)ethanone]
- Ki [1]: 0.2 nM
- Ki [2]: 0.2 nM

Compound: N#CC1(CNC2CCN(C(=O)Cn3cc(Nc4nc5c(N6CC7CCC(C6)N7C(=O)C6CC(C(F)(F)F)C6)cccn5n4)cn3)CC2)CC1 (stereo not drawn) [Example 190, 1-[[[1-[2-[4-[[8-[8-[3-(trifluoromethyl)cyclo-butanecarbonyl]-3,8-diazabicyclo[3.2.1]octan-3-yl]-[1,2,4]triazolo[1,5-a]pyridin-2-yl]amino]pyrazol-1-yl]acetyl]-4-piperidyl]amino]methyl]-cyclopropanecarbonitrile]
- Ki [1]: 1.8 nM
- Ki [2]: 1 nM

Compound: N#CC1(CNC2CCN(C(=O)Cn3cc(Nc4nc5c(N6CC7CCC(C6)N7C(=O)C6CC(C(F)(F)F)C6)cccn5n4)cn3)CC2)CC1 (stereo not drawn) [Example 191, 1-[[[1-[2-[4-[[8-[8-[3-(trifluoromethyl)cyclo-butanecarbonyl]-3,8-diazabicyclo[3.2.1]octan-3-yl]-[1,2,4]triazolo[1,5-a]pyridin-2-yl]amino]pyrazol-1-yl]acetyl]-4-piperidyl]amino]methyl]-cyclopropanecarbonitrile]
- Ki [1]: 7.8 nM
- Ki [2]: 3.5 nM

Compound: CN(CC1(C#N)CC1)C1CCN(C(=O)Cn2cc(Nc3nc4c(N5CC6CCC(C5)N6C(=O)C5CC(C(F)(F)F)C5)cccn4n3)cn2)CC1 (stereo not drawn) [Example 192, 1-[[methyl-[1-[2-[4-[[8-[8-[3-(trifluoromethyl)cyclo-butanecarbonyl]-3,8-diazabicyclo[3.2.1]octan-3-yl]-[1,2,4]triazolo[1,5-a]alpyridin-2-yl]amino]pyrazol-1-yl]acetyl]-4-piperidyl]amino]methyl]-cyclopropanecarbonitrile]
- Ki [1]: 1.1 nM
- Ki [2]: 0.9 nM

Compound: CN(CC1(C#N)CC1)C1CCN(C(=O)Cn2cc(Nc3nc4c(N5CC6CCC(C5)N6C(=O)C5CC(C(F)(F)F)C5)cccn4n3)cn2)CC1 (stereo not drawn) [Example 193, 1-[[methyl-[1-[2-[4-[[8-[8-[3-(trifluoromethyl)cyclobutanecarbonyl]-3,8-diazabicyclo[3.2.1]octan-3-yl]-[1,2,4]triazolo[1,5-a]pyridin-2-yl]amino]pyrazol-1-yl]acetyl]-4-piperidyl]amino]methyl]-cyclopropanecarbonitrile]
- Ki [1]: 0.7 nM
- Ki [2]: 0.6 nM

Compound: O=C(Cn1cc(Nc2nc3c(N4CC5CCC(C4)N5C(=O)N4CC(C(F)(F)F)C4)cccn3n2)cn1)N1CCN(C2COC2)CC1 [Example 194, 1-[4-(oxetan-3-yl)piperazin-1-yl]-2-[4-[[8-[8-[3-(trifluoromethyl)azetidine-1-carbonyl]-3,8-diazabicyclo[3.2.1]octan-3-yl]-[1,2,4]triazolo[1,5-a]pyridin-2-yl]amino]pyrazol-1-yl]ethanone]
- Ki [1]: 0.4 nM
- Ki [2]: 0.9 nM

- Ki [1]: 0.7 nM
- Ki [2]: 0.4 nM
Compound: CN1CCN(C(=O)Cn2cc(Nc3nc4c(N5C[C@H]6CC[C@@H](C5)[C@H]6OCc5cccc(CO)c5)cccn4n3)cn2)CC1 [Example 195, 1-(4-methylpiperazin-1-yl)-2-[4-[[8-[rac-(1S,5R)-8-[[3-(hydroxymethyl)phenyl]methoxy]-3-azabicyclo[3.2.1]octan-3-yl]-[1,2,4]triazolo[1,5-a]pyridin-2-yl]amino]pyrazol-1-yl]ethanone]

Compound: CN1CCN(C(=O)Cn2cc(Nc3nc4c(N5CC6CCC(C5)N6C(=O)c5cnc(CC(F)(F)F)s5)cccn4n3)cn2)CC1 [Example 196]
- Ki [1]: 1.1 nM
- Ki [2]: 0.6 nM
